The source of these data is patent US9089507B2 (priority 2006, dated 2015).

Data set [1] concerns B. anthracis spores. The note with it: mouse, in vivo.
The subject of data set [2] is B. anthracis. The data set is described as follows: microbe, parasite or virus in culture. It is filed as cell-based, Bacillus anthracis.
For data set [3] the following is noted: female, CD-1, mouse, in vivo, 32 mg/kg.
A short description of data set [4]: in vivo. The note with it: female, CD-1, mouse, 32 mg/kg.

Usually AUC stands for concentration integrated over time. A high value points to high exposure. As a reminder, the Cmax is the highest concentration seen after dosing.

Each structure is given as a SMILES string. In brackets after ≈: the same amount, converted by molar mass. Like-named read-outs stand apart in the source and are kept apart here. Bounds are passed on as bounds.

As to `CN[C@H](CC(C)C)C(=O)N[C@H]1C(=O)N[C@@H](CC(N)=O)C(=O)N[C@H]2C(=O)N[C@H]3C(=O)N[C@H](C(=O)N[C@H](C(=O)O)c4cc(O)cc(O)c4-c4cc3ccc4O)[C@H](O[C@H]3C[C@](C)(N)[C@@H](O)[C@H](C)O3)c3ccc(c(Cl)c3)Oc3cc2cc(c3O[C@@H]2O[C@H](CO)[C@@H](O)[C@H](O)[C@H]2O[C@H]2C[C@](C)(NCc3ccc(-c4ccc(Cl)cc4)cc3)[C@@H](O)[C@H](C)O2)Oc2ccc(cc2Cl)[C@H]1O` [Oritavancin, N-(4-(4-chlorophenyl)benzyl)A82846B], the “spore/tissue load at the termination of the study” value in data set [1] is on record as ≤ 5×10^4 CFU/g tissue. For the same compound, the “MIC90 with polysorbate-80 lower than MIC90 in the absence of polysorbate-80” value in data set [2] is 16 fold. The same compound gave an MIC90 in data set [2] (Bacillus anthracis) of 0.12 µg/mL (≈ 0.0669 µM). In addition, the “time-to-peak (Tmax)” value in data set [3] (ip) is reported as 4 h. For the same compound, in data set [3] (iv), the “time plasma concentration remained above the MIC for the Ames strain” value fell in the range of 24 to 48 h and the “time-to-peak (Tmax)” value worked out at 0.25 h. In data set [4] (ip), this compound registered an AUC of 840 µg·h/mL and a Cmax of 95 µg/mL. In data set [4] (iv), this compound returned an AUC of 950 µg·h/mL and a Cmax of 270 µg/mL.
